Experimental data as given in patent US10301272B2, “Carboxamide or sulfonamide substituted thiazoles and related derivatives as modulators for the orphan nuclear receptor ROR[γ]” (Phenex Pharmaceuticals AG, priority 2012, dated 2019).
Where two headings read alike, the source gives them in different places.

Key:
[1] = target: RORγ (Homo sapiens, UniProt P51449); experiment: RORγ Gal4 Reporter Gene Assay; type: cell-based; settings: for IC50: 293T cells
Summary of the method: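 Cells at 5×10^5/well were transfected with RORγ fragments fused to the GAL4 DNA-binding domain (CMV promoter), a 5×GAL4-site firefly luciferase reporter and CMV-Renilla luciferase for normalization. About 4 h later serum-free MEM and compound were added (vehicle ≤0.1%). Cultures at 37 °C, 5% CO2; at least triplicates.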

[2] = target: RORγ ligand binding domain (LBD) (Homo sapiens (Human), UniProt P51449); experiment: TR-FRET Activity Assay (ligand sensing assay, LANCE); settings: for pIC50 (FRET): TR-FRET, interaction of RORγ-LBD with coactivator peptide
Sequence of RORγ ligand binding domain (LBD) (P51449 269-508): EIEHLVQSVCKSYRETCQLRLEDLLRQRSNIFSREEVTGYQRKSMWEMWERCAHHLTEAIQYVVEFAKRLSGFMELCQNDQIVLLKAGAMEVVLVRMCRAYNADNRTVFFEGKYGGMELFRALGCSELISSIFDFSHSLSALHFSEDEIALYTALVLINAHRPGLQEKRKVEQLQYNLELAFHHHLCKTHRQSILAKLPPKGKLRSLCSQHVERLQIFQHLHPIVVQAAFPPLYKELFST

[3] = firefly (FF) luciferase, read-out: pIC50 (FF) (converted)
[4] = renilla normalised (RENnorm) luciferase, read-out: pIC50 (REN) (converted)

Sequence of RORγ (P51449 whole entry, looked up, the tested form may be a part): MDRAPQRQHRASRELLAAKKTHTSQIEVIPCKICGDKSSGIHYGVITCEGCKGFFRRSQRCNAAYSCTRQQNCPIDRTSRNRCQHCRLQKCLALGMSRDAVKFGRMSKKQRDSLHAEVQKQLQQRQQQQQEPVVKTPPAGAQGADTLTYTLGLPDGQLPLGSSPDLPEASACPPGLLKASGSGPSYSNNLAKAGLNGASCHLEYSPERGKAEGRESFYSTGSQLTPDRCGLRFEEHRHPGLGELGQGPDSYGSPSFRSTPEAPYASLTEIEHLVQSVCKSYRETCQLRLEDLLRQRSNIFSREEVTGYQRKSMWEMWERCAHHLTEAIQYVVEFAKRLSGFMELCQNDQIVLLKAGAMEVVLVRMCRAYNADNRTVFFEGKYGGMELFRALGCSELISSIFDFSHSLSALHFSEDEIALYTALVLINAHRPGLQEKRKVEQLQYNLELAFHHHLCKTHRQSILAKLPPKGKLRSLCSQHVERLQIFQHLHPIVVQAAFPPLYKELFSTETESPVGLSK

| SMILES | IC50 [1, 3] | IC50 [1, 4] | IC50 [2] | pIC50 (FF) [1] | pIC50 (REN) [1] | pIC50 (FRET) [2] |
| --- | --- | --- | --- | --- | --- | --- |
| CC(C)(C)NS(=O)(=O)c1ccc(-c2sc(C(=O)N[C@H]3C[C@H](C(=O)O)C3)nc2CC2CCCCC2)c(OC(F)F)c1Cl [21/3] | 10 nM | 5.01 nM | 398 nM | – | – | – |
| CC(C)(O)CNC(=O)c1nc(CC2CCCCC2)c(-c2ccc(S(=O)(=O)NC(C)(C)C)c(Cl)c2OC(F)F)s1 [21/4] | – | – | – | 6.9/8.2/8.4 | 6.9/8.2/8.4 | 6.9/8.2/8.4 |
| O=C(c1nc(CC2CCCCC2)c(-c2ccc(S(=O)(=O)NC3CCOCC3)c3ccccc23)s1)N1CC2(CCS(=O)(=O)CC2)C1 [21/9] | – | – | – | 6.2/7.3/7.4 | 6.2/7.3/7.4 | 6.2/7.3/7.4 |
| CC(O)c1c(S(=O)(=O)NC(C)(C)C)ccc(-c2sc(C(=O)N3CC4(CCS(=O)(=O)CC4)C3)nc2CC2CCCCC2)c1Cl (stereo not drawn) [21/10] | – | – | – | 5.9/6.7/6.7 | 5.9/6.7/6.7 | 5.9/6.7/6.7 |
| CC(C)(C)NS(=O)(=O)c1ccc(-c2sc(C(=O)NC3CCS(=O)(=O)CC3)nc2CC2CCCCC2)c2ccncc12 [21/13] | – | – | – | 6.3/7.9/7.9 | 6.3/7.9/7.9 | 6.3/7.9/7.9 |
| CC(C)(C)NS(=O)(=O)c1ccc(-c2oc(C(=O)N[C@H]3C[C@H](C(=O)O)C3)nc2CC2CCCCC2)cc1C(C)(C)C [100/2] | – | – | – | 5.5/6.4/6.3 | 5.5/6.4/6.3 | 5.5/6.4/6.3 |
| CN(C(=O)c1nc(CC2CCCCC2)c(-c2ccc(S(=O)(=O)NC(C)(C)C)c3ccccc23)o1)C1CCOCC1 [100/4] | – | – | – | 6.6/7.1/7.3 | 6.6/7.1/7.3 | 6.6/7.1/7.3 |
| CC(C)(C)NS(=O)(=O)c1ccc(-c2oc(C(=O)NCC3(O)CCOCC3)nc2CC2CCCCC2)c2ccccc12 [100/5] | – | – | – | 6.3/8.1/8.2 | 6.3/8.1/8.2 | 6.3/8.1/8.2 |
| CC(C)(C)NS(=O)(=O)c1ccc(-c2oc(C(=O)NC3CCS(=O)(=O)CC3)nc2CC2CCCCC2)c2ccccc12 [100/6] | – | – | – | 6.4/8.5/8.4 | 6.4/8.5/8.4 | 6.4/8.5/8.4 |
| CC(C)(O)CNC(=O)c1nc(CC2CCCCC2)c(-c2ccc(S(=O)(=O)NC(C)(C)C)c3ccccc23)o1 [100/7] | – | – | – | 6.6/7.7/7.9 | 6.6/7.7/7.9 | 6.6/7.7/7.9 |
| CC(C)(C)NS(=O)(=O)c1ccc(-c2oc(C(=O)NCC3(O)CCS(=O)(=O)CC3)nc2CC2CCCCC2)c2ccccc12 [100/8] | – | – | – | 6.5/8.0/8.2 | 6.5/8.0/8.2 | 6.5/8.0/8.2 |
| CC(C)(C)NS(=O)(=O)c1ccc(-c2oc(C(=O)N3CC4(CCS(=O)(=O)CC4)C3)nc2CC2CCCCC2)c2ccccc12 [100/9] | – | – | – | 6.3/8.5/8.5 | 6.3/8.5/8.5 | 6.3/8.5/8.5 |
| CC(C)(C)NS(=O)(=O)c1ccc(-c2oc(C(=O)N3CC4(CCOCC4)C3)nc2CC2CCCCC2)c2ccccc12 [100/10] | – | – | – | 6.4/7.2/7.4 | 6.4/7.2/7.4 | 6.4/7.2/7.4 |
| CC(C)(C)NS(=O)(=O)c1ccc(-c2oc(C(=O)N3CC4(CCSCC4)C3)nc2CC2CCCCC2)c2ccccc12 [100/11] | – | – | – | 6.8/7.1/7.3 | 6.8/7.1/7.3 | 6.8/7.1/7.3 |
| CC(C)(C)NS(=O)(=O)c1ccc(-c2oc(C(=O)N[C@H]3C[C@H](C(=O)O)C3)nc2CC2CCCCC2)c2ccccc12 [100/13] | – | – | – | 6.1/7.0/7.1 | 6.1/7.0/7.1 | 6.1/7.0/7.1 |
| CC(C)(C)NS(=O)(=O)c1ccc(-c2oc(C(=O)NC34CCC(C(=O)O)(CC3)CC4)nc2CC2CCCCC2)c2ccccc12 [100/14] | – | – | – | 5.8/7.9/7.9 | 5.8/7.9/7.9 | 5.8/7.9/7.9 |
| CC(C)(O)CNC(=O)c1nc(CC2CCCCC2)c(-c2ccc(S(=O)(=O)NC(C)(C)C)c(Cl)c2Cl)o1 [100/15] | – | – | – | 6.4/7.4/7.5 | 6.4/7.4/7.5 | 6.4/7.4/7.5 |
| CC(C)(C)NS(=O)(=O)c1ccc(-c2oc(C(=O)NC3CCS(=O)(=O)CC3)nc2CC2CCCCC2)c(Cl)c1Cl [100/16] | – | – | – | 6.6/8.4/8.2 | 6.6/8.4/8.2 | 6.6/8.4/8.2 |
| CC(C)(C)NS(=O)(=O)c1ccc(-c2oc(C(=O)N[C@H]3C[C@H](C(=O)O)C3)nc2CC2CCCCC2)c(Cl)c1Cl [100/17] | – | – | – | 6.1/7.1/7.0 | 6.1/7.1/7.0 | 6.1/7.1/7.0 |
| CC(C)(C)c1cc(-c2oc(C(=O)NC3CCOCC3)nc2CC2CCCCC2)cc(C2(C)CC2)c1 [100/18] | – | – | – | 6.9/6.9/6.9 | 6.9/6.9/6.9 | 6.9/6.9/6.9 |
| CC(C)(CNC(=O)c1nc(CC2CCCCC2)c(-c2cc(C(C)(C)C)cc(C3(C)CC3)c2)o1)C(=O)O [100/19] | – | – | – | 5.9/6.6/6.6 | 5.9/6.6/6.6 | 5.9/6.6/6.6 |
| CC(C)(C)c1cc(-c2oc(C(=O)N[C@H]3C[C@H](C(=O)O)C3)nc2CC2CCCCC2)cc(C2(C)CC2)c1 [100/20] | – | – | – | 6.0/6.8/7.0 | 6.0/6.8/7.0 | 6.0/6.8/7.0 |
| CC(C)(C)NS(=O)(=O)c1ccc(-c2oc(C(=O)NC3CCC(C)(C(=O)O)CC3)nc2CC2CCCCC2)c2ccccc12 (stereo not drawn) [100/22] | – | – | – | 5.9/6.8/7.0 | 5.9/6.8/7.0 | 5.9/6.8/7.0 |
| CC(C)(C)NS(=O)(=O)c1ccc(-c2oc(C(=O)NC34CCC(C(=O)O)(CC3)C4)nc2CC2CCCCC2)c2ccccc12 [100/23] | – | – | – | 6.1/8.3/8.4 | 6.1/8.3/8.4 | 6.1/8.3/8.4 |
| CC(C)(C)NS(=O)(=O)c1ccc(-c2sc(C(=O)NC3CCS(=O)(=O)CC3)nc2C2CCCCC2)c2ccccc12 [300/2] | – | – | – | 6.9/8.2/8.2 | 6.9/8.2/8.2 | 6.9/8.2/8.2 |
| CCCc1nc(C(=O)NC2CCS(=O)(=O)CC2)sc1-c1ccc(S(=O)(=O)NC(C)(C)C)c(Cl)c1Cl [300/5] | – | – | – | 7.0/7.4/7.5 | 7.0/7.4/7.5 | 7.0/7.4/7.5 |
| CCCc1nc(C(=O)N[C@H]2C[C@H](C(=O)O)C2)sc1-c1ccc(S(=O)(=O)NC(C)(C)C)c(Cl)c1Cl [300/6] | 126 nM | 158 nM | 200 nM | – | – | – |
